PubChem BioAssay (NCI)
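Cultured in 96-well plates, cells were exposed to test compound for 48 hours across five concentrations. At the GI50, growth is halved. TGI marks complete inhibition of growth.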

What follows are compounds tested on NCI-H23 lung (assay: NCI tumour cell line growth inhibition, 48 h).
`Cc1ccc2c(-c3ccnc(Nc4ccc5c(c4)OCCO5)n3)c(-c3ccc(C(F)(F)F)cc3)nn2n1` gave a GI50 of 14.3 µM and a TGI greater than 25 µM. `Nc1nc2c(c3cnccc13)C(c1ccc(Cl)c(Cl)c1)Cc1cnccc1-2` (stereo unspecified) was tested, and the GI50 was 1.14 µM and the TGI was 9.13 µM. In the case of `CN(C)CCCC1(c2ccc(F)cc2)OCc2cc(-c3cccc4[nH]ccc34)ccc21` (stereo unspecified), the GI50 is reported as 1.83 µM and the TGI is reported as 3.62 µM.

What follows are compounds tested on NCI-H460 lung (assay: NCI tumour cell line growth inhibition, 48 h).
Compound `Cc1ccc2c(-c3ccnc(Nc4ccc5c(c4)OCCO5)n3)c(-c3ccc(C(F)(F)F)cc3)nn2n1` has a GI50 of 5.66 µM and a TGI greater than 25 µM. Work on `Nc1nc2c(c3cnccc13)C(c1ccc(Cl)c(Cl)c1)Cc1cnccc1-2` (stereo unspecified) yielded a GI50 of 0.428 µM and a TGI of 3.99 µM. `CN(C)CCCC1(c2ccc(F)cc2)OCc2cc(-c3cccc4[nH]ccc34)ccc21` (stereo unspecified) gave a GI50 of 1.89 µM and a TGI of 3.63 µM.

What follows are compounds tested on NCI-H522 lung (assay: NCI tumour cell line growth inhibition, 48 h).
`Cc1ccc2c(-c3ccnc(Nc4ccc5c(c4)OCCO5)n3)c(-c3ccc(C(F)(F)F)cc3)nn2n1` was tested, and the GI50 was 4.57 µM and the TGI was 21.4 µM. With `Nc1nc2c(c3cnccc13)C(c1ccc(Cl)c(Cl)c1)Cc1cnccc1-2` (stereo unspecified) the GI50 was 0.249 µM and the TGI was 0.73 µM. In the case of `CN(C)CCCC1(c2ccc(F)cc2)OCc2cc(-c3cccc4[nH]ccc34)ccc21` (stereo unspecified), the GI50 is reported as 1.59 µM and the TGI is reported as 3.22 µM.

These compounds were tested on NCI/ADR-RES ovarian (assay: NCI tumour cell line growth inhibition, 48 h).
`Cc1ccc2c(-c3ccnc(Nc4ccc5c(c4)OCCO5)n3)c(-c3ccc(C(F)(F)F)cc3)nn2n1` showed a GI50 of 5.55 µM and a TGI greater than 25 µM. `Nc1nc2c(c3cnccc13)C(c1ccc(Cl)c(Cl)c1)Cc1cnccc1-2` (stereo unspecified) gave a GI50 of 0.43 µM and a TGI of 7.69 µM. In the case of `CN(C)CCCC1(c2ccc(F)cc2)OCc2cc(-c3cccc4[nH]ccc34)ccc21` (stereo unspecified), the GI50 is reported as 1.72 µM and the TGI is reported as 3.38 µM.

The compounds below were run on OVCAR-3 ovarian (assay: NCI tumour cell line growth inhibition, 48 h).
`Cc1ccc2c(-c3ccnc(Nc4ccc5c(c4)OCCO5)n3)c(-c3ccc(C(F)(F)F)cc3)nn2n1` showed a GI50 greater than 23.6 µM and a TGI greater than 25 µM. `Nc1nc2c(c3cnccc13)C(c1ccc(Cl)c(Cl)c1)Cc1cnccc1-2` (stereo unspecified) showed a GI50 of 0.382 µM and a TGI of 5.86 µM. `CN(C)CCCC1(c2ccc(F)cc2)OCc2cc(-c3cccc4[nH]ccc34)ccc21` (stereo unspecified) gave a GI50 of 1.79 µM and a TGI of 3.35 µM.

What follows are compounds tested on OVCAR-4 ovarian (assay: NCI tumour cell line growth inhibition, 48 h).
`Cc1ccc2c(-c3ccnc(Nc4ccc5c(c4)OCCO5)n3)c(-c3ccc(C(F)(F)F)cc3)nn2n1` was tested, and the GI50 was 8.59 µM and the TGI was greater than 25 µM. With `Nc1nc2c(c3cnccc13)C(c1ccc(Cl)c(Cl)c1)Cc1cnccc1-2` (stereo unspecified) the GI50 was 4.28 µM and the TGI was 25.1 µM. Compound `CN(C)CCCC1(c2ccc(F)cc2)OCc2cc(-c3cccc4[nH]ccc34)ccc21` (stereo unspecified) has a GI50 of 1.97 µM and a TGI of 4.51 µM.

What follows are compounds tested on OVCAR-5 ovarian (assay: NCI tumour cell line growth inhibition, 48 h).
`Cc1ccc2c(-c3ccnc(Nc4ccc5c(c4)OCCO5)n3)c(-c3ccc(C(F)(F)F)cc3)nn2n1` was tested, and the GI50 was 6 µM and the TGI was greater than 25 µM. With `Nc1nc2c(c3cnccc13)C(c1ccc(Cl)c(Cl)c1)Cc1cnccc1-2` (stereo unspecified) the GI50 was 2.52 µM and the TGI was 17 µM. In the case of `CN(C)CCCC1(c2ccc(F)cc2)OCc2cc(-c3cccc4[nH]ccc34)ccc21` (stereo unspecified), the GI50 is reported as 1.71 µM and the TGI is reported as 3.27 µM.

Each compound was assayed on OVCAR-8 ovarian (assay: NCI tumour cell line growth inhibition, 48 h).
`Cc1ccc2c(-c3ccnc(Nc4ccc5c(c4)OCCO5)n3)c(-c3ccc(C(F)(F)F)cc3)nn2n1` showed a GI50 of 8.48 µM and a TGI greater than 25 µM. `Nc1nc2c(c3cnccc13)C(c1ccc(Cl)c(Cl)c1)Cc1cnccc1-2` (stereo unspecified) was tested, and the GI50 was 2.69 µM and the TGI was 15 µM. With `CN(C)CCCC1(c2ccc(F)cc2)OCc2cc(-c3cccc4[nH]ccc34)ccc21` (stereo unspecified) the GI50 was 1.86 µM and the TGI was 3.7 µM.

Each compound was assayed on PC-3 prostate (assay: NCI tumour cell line growth inhibition, 48 h).
With `Cc1ccc2c(-c3ccnc(Nc4ccc5c(c4)OCCO5)n3)c(-c3ccc(C(F)(F)F)cc3)nn2n1` the GI50 was 10.1 µM and the TGI was greater than 25 µM. For `Nc1nc2c(c3cnccc13)C(c1ccc(Cl)c(Cl)c1)Cc1cnccc1-2` (stereo unspecified), the GI50 was 0.544 µM and the TGI was 12.8 µM. With `CN(C)CCCC1(c2ccc(F)cc2)OCc2cc(-c3cccc4[nH]ccc34)ccc21` (stereo unspecified) the GI50 was 1.58 µM and the TGI was 3.31 µM.

Each compound was assayed on RPMI-8226 leukemia (assay: NCI tumour cell line growth inhibition, 48 h).
With `Cc1ccc2c(-c3ccnc(Nc4ccc5c(c4)OCCO5)n3)c(-c3ccc(C(F)(F)F)cc3)nn2n1` the GI50 was 2.13 µM and the TGI was 13.5 µM. With `Nc1nc2c(c3cnccc13)C(c1ccc(Cl)c(Cl)c1)Cc1cnccc1-2` (stereo unspecified) the GI50 was 0.788 µM and the TGI was 12.9 µM. Work on `CN(C)CCCC1(c2ccc(F)cc2)OCc2cc(-c3cccc4[nH]ccc34)ccc21` (stereo unspecified) yielded a GI50 of 1.77 µM and a TGI of 4.12 µM.

These compounds were tested on RXF 393 renal (assay: NCI tumour cell line growth inhibition, 48 h).
Work on `Cc1ccc2c(-c3ccnc(Nc4ccc5c(c4)OCCO5)n3)c(-c3ccc(C(F)(F)F)cc3)nn2n1` yielded a GI50 of 4.39 µM and a TGI greater than 25 µM. In the case of `Nc1nc2c(c3cnccc13)C(c1ccc(Cl)c(Cl)c1)Cc1cnccc1-2` (stereo unspecified), the GI50 is reported as 0.522 µM and the TGI is reported as 3.48 µM. `CN(C)CCCC1(c2ccc(F)cc2)OCc2cc(-c3cccc4[nH]ccc34)ccc21` (stereo unspecified) showed a GI50 of 1.46 µM and a TGI of 2.88 µM.

These compounds were tested on SF-268 CNS (assay: NCI tumour cell line growth inhibition, 48 h).
`Cc1ccc2c(-c3ccnc(Nc4ccc5c(c4)OCCO5)n3)c(-c3ccc(C(F)(F)F)cc3)nn2n1` was tested, and the GI50 was greater than 25 µM and the TGI was greater than 25 µM. Compound `Nc1nc2c(c3cnccc13)C(c1ccc(Cl)c(Cl)c1)Cc1cnccc1-2` (stereo unspecified) has a GI50 of 1.18 µM and a TGI of 18.3 µM. With `CN(C)CCCC1(c2ccc(F)cc2)OCc2cc(-c3cccc4[nH]ccc34)ccc21` (stereo unspecified) the GI50 was 1.58 µM and the TGI was 3.03 µM.

Each compound was assayed on SF-295 CNS (assay: NCI tumour cell line growth inhibition, 48 h).
`Cc1ccc2c(-c3ccnc(Nc4ccc5c(c4)OCCO5)n3)c(-c3ccc(C(F)(F)F)cc3)nn2n1` showed a GI50 of 7.01 µM and a TGI greater than 25 µM. Compound `Nc1nc2c(c3cnccc13)C(c1ccc(Cl)c(Cl)c1)Cc1cnccc1-2` (stereo unspecified) has a GI50 of 0.394 µM and a TGI of 4.76 µM. `CN(C)CCCC1(c2ccc(F)cc2)OCc2cc(-c3cccc4[nH]ccc34)ccc21` (stereo unspecified) gave a GI50 of 1.84 µM and a TGI of 3.44 µM.

These compounds were tested on SF-539 CNS (assay: NCI tumour cell line growth inhibition, 48 h).
Compound `Cc1ccc2c(-c3ccnc(Nc4ccc5c(c4)OCCO5)n3)c(-c3ccc(C(F)(F)F)cc3)nn2n1` has a GI50 greater than 18.7 µM and a TGI greater than 25 µM. Work on `Nc1nc2c(c3cnccc13)C(c1ccc(Cl)c(Cl)c1)Cc1cnccc1-2` (stereo unspecified) yielded a GI50 of 0.486 µM and a TGI of 4.29 µM. `CN(C)CCCC1(c2ccc(F)cc2)OCc2cc(-c3cccc4[nH]ccc34)ccc21` (stereo unspecified) showed a GI50 of 1.67 µM and a TGI of 3.12 µM.

Each compound was assayed on SK-MEL-2 melanoma (assay: NCI tumour cell line growth inhibition, 48 h).
For `Cc1ccc2c(-c3ccnc(Nc4ccc5c(c4)OCCO5)n3)c(-c3ccc(C(F)(F)F)cc3)nn2n1`, the GI50 was 8.42 µM and the TGI was greater than 25 µM.
